The values below come from ChEMBL document CHEMBL5465560, “Selectivity Literature for EUbOPEN Chemogenomic Library” (2024).

The target of test [1] is Death-associated protein kinase 1 (Homo sapiens, UniProt P53355). Put plainly: Selectivity interaction (Adapta Assay) EUB0001632a DAPK1. As to conditions: at 10 µM.
The target in test [2] is T1, Mitogen-activated protein kinase 13 (Homo sapiens) (UniProt O15264).
T1 sequence (whole entry): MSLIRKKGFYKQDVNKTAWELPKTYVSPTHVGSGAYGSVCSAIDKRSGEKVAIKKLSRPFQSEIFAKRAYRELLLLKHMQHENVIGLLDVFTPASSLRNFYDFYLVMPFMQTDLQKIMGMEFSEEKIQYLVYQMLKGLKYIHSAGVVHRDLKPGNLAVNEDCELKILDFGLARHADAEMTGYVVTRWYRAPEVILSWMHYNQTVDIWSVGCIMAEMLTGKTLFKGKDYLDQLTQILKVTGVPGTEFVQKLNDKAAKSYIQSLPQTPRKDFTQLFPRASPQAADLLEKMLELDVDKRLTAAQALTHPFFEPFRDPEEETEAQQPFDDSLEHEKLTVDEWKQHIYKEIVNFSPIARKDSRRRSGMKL
Nature of the test: Selectivity interaction (Ambit KINOMEscan and KiNATiv profiling in Jurkat cells) EUB0000090b MAPK13. Type of test: cell-based. As to conditions: at 1 µM.

The target of test [3] is T2, Ephrin type-B receptor 4 (Homo sapiens) (UniProt P54760).
T2 sequence (whole entry): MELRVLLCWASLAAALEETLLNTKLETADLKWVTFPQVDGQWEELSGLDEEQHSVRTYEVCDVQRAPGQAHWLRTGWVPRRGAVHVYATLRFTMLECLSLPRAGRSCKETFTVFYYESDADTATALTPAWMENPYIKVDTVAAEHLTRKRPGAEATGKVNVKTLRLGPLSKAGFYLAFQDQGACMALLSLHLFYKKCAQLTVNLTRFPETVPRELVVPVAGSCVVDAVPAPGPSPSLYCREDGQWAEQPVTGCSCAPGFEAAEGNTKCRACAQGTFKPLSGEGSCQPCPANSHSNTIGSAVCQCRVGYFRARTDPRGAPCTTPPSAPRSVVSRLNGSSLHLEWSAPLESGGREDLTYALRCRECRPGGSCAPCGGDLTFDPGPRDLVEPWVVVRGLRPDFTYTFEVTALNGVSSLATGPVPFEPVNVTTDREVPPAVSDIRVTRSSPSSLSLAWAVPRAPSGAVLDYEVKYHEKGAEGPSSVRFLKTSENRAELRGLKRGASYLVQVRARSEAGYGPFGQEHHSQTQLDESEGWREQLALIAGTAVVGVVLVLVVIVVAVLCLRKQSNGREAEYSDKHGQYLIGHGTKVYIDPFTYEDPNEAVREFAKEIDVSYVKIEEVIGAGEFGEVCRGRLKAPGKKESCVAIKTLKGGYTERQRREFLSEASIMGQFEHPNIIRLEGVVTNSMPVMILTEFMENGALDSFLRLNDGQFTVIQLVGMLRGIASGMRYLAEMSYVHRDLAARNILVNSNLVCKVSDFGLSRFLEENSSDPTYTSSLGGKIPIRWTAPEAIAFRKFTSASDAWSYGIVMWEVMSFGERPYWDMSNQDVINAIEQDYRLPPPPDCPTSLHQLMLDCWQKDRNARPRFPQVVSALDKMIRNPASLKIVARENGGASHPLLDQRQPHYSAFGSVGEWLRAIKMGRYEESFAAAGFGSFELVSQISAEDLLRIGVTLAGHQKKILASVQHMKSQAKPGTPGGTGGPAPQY
Nature of the test: Selectivity interaction (KinomeScan (DiscoverX)) EUB0000607a EPHB4. The note with it: at 10 µM.

In test [4] the target is 5'-AMP-activated protein kinase catalytic subunit alpha-1 (Homo sapiens, UniProt Q13131). As to conditions: at 10 µM.
Test [5] addresses Cyclin-dependent kinase 5 (Homo sapiens, UniProt Q00535). As to conditions: at 10 µM.
Another test concerns the target SRSF protein kinase 1 (Homo sapiens, UniProt Q96SB4). Put plainly: Selectivity interaction (KinomeScan (DiscoverX)) EUB0001079a SRPK1. As to conditions: at 1 µM.
The target in test [6] is Vasopressin V1a receptor (Homo sapiens) (UniProt P37288). Nature of the test: Selectivity interaction (Panel of kinases, GPCRs, ion channels and transporters (enzymatic assay)) EUB0000266bCl AVPR1A.
Test [7] addresses Ribosomal protein S6 kinase alpha-1 (Homo sapiens, UniProt Q15418). Put plainly: Selectivity interaction (ActivX KiNativ screen (kinase selectivity in THP-1 cell lysates)) EUB0000639a RPS6KA1. Type of test: subcellular. As to conditions: lysate, at 1 µM.
Test [8] has as its target Serine/threonine-protein kinase SIK2 (Homo sapiens) (UniProt Q9H0K1). Nature of the test: Selectivity interaction (KinomeScan (DiscoverX)) EUB0000695a SIK2. The note with it: at 100 nM.
In test [9] the target is Histone acetyltransferase KAT2A (Homo sapiens) (UniProt Q92830). Nature of the test: Selectivity interaction (Human bromodomain panel (DSF assay)) EUB0000233b KAT2A. In general terms: In DSF a fluorescence change marks the thermal transition of the protein.
Test [10] deals with T3, Serine/threonine-protein kinase 3 (Homo sapiens) (UniProt Q13188).
T3 sequence (whole entry): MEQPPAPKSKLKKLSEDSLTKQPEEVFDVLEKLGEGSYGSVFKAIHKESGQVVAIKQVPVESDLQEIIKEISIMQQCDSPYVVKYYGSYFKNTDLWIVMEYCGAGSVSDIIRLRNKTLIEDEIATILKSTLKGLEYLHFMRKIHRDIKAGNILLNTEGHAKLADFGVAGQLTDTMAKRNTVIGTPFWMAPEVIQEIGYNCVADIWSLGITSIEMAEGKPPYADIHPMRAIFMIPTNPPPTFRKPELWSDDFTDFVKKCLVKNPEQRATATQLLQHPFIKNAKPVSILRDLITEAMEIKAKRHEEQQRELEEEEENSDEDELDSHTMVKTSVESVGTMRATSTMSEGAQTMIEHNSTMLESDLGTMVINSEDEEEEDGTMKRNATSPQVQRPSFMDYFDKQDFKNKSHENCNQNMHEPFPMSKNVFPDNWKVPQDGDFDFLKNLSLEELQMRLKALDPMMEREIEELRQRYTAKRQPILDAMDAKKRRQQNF
Put plainly: Selectivity interaction (KinomeScan (DiscoverX)) EUB0000045b STK3.

For test [11], the target named is MAP/microtubule affinity-regulating kinase 3 (Homo sapiens) (UniProt P27448). Nature of the test: Selectivity interaction (KinomeScan (DiscoverX)) EUB0000595a MARK3. As to conditions: at 10 µM.

A value given as a limit tells only on which side of the number the result lay.

Serine/threonine-protein kinase SIK2 (Homo sapiens), sequence (Q9H0K1 whole entry, looked up): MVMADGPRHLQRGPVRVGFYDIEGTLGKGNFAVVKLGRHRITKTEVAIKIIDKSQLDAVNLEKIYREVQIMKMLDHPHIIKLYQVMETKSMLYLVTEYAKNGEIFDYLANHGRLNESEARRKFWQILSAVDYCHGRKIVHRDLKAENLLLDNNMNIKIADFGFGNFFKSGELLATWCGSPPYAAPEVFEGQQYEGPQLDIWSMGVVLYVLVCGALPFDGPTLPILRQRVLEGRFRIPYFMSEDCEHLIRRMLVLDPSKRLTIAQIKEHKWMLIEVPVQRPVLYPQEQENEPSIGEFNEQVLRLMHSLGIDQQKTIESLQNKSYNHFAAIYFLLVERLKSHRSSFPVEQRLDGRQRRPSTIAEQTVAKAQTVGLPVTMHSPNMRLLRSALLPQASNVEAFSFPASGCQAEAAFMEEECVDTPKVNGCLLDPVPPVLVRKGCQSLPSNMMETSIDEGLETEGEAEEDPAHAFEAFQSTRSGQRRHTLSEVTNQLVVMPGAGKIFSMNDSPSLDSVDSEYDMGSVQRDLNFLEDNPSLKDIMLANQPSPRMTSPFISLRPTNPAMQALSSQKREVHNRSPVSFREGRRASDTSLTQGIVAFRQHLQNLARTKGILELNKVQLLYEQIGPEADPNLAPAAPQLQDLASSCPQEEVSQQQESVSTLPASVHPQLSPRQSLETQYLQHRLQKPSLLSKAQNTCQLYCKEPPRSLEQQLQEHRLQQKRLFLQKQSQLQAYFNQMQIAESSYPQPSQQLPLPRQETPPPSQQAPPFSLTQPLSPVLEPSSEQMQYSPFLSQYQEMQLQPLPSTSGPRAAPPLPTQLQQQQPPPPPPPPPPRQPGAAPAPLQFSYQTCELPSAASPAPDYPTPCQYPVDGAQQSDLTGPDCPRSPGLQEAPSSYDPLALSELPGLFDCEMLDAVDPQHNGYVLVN
Histone acetyltransferase KAT2A (Homo sapiens), sequence (Q92830 2-837 limits assumed): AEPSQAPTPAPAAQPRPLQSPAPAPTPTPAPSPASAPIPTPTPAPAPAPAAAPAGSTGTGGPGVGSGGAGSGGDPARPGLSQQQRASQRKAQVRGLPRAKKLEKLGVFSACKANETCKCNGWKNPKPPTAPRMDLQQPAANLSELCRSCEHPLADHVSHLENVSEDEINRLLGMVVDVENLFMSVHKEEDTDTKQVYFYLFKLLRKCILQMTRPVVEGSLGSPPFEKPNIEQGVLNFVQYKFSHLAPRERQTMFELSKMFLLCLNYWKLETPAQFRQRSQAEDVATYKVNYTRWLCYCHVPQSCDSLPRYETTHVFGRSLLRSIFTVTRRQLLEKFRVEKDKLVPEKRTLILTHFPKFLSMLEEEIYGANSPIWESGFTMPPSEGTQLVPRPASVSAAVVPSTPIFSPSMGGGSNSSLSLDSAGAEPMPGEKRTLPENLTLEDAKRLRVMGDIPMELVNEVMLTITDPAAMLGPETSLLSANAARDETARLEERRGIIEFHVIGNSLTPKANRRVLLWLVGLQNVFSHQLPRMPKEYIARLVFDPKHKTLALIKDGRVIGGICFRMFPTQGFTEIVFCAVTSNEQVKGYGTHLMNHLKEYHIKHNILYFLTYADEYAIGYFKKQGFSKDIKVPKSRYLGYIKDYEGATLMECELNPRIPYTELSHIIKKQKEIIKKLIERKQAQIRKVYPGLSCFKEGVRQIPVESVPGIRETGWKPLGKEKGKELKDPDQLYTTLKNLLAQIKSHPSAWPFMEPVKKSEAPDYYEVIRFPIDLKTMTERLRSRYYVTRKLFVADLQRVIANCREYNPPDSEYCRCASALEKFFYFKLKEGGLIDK
5'-AMP-activated protein kinase catalytic subunit alpha-1, sequence (Q13131 whole entry, looked up): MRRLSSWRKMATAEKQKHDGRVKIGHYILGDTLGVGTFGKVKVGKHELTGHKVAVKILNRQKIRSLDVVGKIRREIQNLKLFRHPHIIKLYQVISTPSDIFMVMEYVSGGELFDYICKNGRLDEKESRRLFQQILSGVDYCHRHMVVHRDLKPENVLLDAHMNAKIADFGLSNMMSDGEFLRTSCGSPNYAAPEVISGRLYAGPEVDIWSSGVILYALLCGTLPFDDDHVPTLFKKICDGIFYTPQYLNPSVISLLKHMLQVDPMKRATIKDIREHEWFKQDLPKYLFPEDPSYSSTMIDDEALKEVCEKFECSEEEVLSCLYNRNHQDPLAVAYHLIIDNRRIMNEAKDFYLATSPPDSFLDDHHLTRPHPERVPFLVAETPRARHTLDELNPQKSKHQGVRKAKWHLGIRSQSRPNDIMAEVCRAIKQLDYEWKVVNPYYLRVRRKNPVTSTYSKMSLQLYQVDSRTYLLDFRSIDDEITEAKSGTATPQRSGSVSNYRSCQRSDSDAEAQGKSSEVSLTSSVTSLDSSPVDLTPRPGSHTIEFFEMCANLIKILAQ
Ribosomal protein S6 kinase alpha-1, sequence (Q15418 whole entry): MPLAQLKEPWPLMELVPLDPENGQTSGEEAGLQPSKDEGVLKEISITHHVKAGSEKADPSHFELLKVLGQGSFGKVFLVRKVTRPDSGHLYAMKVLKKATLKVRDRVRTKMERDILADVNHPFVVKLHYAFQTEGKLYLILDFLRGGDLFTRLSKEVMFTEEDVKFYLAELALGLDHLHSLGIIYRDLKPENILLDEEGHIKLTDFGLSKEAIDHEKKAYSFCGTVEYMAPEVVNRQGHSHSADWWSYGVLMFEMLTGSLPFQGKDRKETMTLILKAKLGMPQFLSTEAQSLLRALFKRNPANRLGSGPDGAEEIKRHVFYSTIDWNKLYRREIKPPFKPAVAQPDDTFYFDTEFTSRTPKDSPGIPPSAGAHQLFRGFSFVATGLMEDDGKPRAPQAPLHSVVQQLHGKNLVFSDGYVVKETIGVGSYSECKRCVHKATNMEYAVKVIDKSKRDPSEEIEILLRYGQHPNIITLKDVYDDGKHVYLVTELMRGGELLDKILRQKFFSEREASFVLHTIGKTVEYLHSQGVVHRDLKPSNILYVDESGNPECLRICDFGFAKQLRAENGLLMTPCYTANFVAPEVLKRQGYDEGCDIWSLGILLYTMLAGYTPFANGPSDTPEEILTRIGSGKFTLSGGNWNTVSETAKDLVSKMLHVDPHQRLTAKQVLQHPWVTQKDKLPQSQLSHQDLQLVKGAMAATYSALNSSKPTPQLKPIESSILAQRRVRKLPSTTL
Cyclin-dependent kinase 5, sequence (Q00535 whole entry, looked up): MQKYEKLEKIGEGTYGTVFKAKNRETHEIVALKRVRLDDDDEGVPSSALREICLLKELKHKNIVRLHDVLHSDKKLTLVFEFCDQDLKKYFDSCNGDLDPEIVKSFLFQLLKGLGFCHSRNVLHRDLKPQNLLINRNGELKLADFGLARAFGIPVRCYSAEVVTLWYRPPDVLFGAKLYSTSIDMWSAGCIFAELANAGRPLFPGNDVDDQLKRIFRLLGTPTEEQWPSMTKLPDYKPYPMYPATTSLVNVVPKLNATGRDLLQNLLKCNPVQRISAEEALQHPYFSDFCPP
SRSF protein kinase 1, sequence (Q96SB4 whole entry): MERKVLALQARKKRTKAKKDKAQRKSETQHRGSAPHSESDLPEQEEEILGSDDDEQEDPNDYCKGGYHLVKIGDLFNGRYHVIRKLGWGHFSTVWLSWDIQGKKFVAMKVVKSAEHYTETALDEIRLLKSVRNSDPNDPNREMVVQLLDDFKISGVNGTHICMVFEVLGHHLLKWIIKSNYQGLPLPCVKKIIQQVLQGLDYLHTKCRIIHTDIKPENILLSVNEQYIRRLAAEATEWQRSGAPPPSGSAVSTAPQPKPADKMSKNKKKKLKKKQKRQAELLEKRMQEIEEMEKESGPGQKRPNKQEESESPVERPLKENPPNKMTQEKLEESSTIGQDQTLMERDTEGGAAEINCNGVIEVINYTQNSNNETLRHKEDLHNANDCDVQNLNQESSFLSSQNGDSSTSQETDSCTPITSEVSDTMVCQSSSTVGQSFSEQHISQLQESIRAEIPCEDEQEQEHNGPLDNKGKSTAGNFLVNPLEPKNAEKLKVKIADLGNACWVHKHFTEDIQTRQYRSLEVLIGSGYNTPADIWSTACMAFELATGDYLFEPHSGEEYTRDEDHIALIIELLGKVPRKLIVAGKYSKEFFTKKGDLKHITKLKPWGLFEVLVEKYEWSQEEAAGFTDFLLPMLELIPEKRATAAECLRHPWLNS
MAP/microtubule affinity-regulating kinase 3 (Homo sapiens), sequence (P27448 whole entry, looked up): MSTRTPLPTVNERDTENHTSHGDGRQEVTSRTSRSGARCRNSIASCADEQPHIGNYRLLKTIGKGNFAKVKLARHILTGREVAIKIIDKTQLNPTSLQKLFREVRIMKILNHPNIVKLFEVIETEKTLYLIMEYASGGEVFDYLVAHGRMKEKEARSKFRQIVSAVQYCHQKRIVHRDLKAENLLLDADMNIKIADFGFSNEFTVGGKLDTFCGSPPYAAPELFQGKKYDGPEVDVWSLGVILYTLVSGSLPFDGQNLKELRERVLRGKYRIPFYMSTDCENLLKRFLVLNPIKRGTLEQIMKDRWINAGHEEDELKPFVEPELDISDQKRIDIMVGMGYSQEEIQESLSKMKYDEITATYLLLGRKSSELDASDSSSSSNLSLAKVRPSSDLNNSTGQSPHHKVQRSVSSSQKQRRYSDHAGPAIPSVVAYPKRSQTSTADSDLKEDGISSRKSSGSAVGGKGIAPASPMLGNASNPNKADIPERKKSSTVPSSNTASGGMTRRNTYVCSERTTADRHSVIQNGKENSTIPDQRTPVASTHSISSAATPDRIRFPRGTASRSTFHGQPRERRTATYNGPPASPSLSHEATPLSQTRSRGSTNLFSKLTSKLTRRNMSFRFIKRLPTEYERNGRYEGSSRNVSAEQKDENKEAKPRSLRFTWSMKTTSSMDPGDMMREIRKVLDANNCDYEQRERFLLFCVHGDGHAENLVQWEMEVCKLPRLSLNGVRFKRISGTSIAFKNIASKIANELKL

For the compound `Cn1cc(-n2cnc3c(NCc4nc5cc(Cl)c(Cl)cc5[nH]4)nc(N4CCOCC4)nc32)cn1`, the % of inhibition in test [1] was found to be 34%. The compound `CN(C)C/C=C/C(=O)Nc1ccc(C(=O)N2CCCC(Nc3ncc(Cl)c(-c4c[nH]c5ccccc45)n3)C2)cc1` (stereo not drawn) came in with a % of control in test [2] of 85%. In turn, `CNC(=O)Nc1ccc(-c2nc(N3CC4CCC(C3)O4)c3cnn(C4CCC5(CC4)OCCO5)c3n2)cc1` yielded a % of control in test [3] of 100%.

As for `Cc1cc([C@@H](C)Nc2ccccc2C(=O)O)c2nc(N3CCOCC3)cc(=O)n2c1` [AZD-6482], the % of control in test [4] and in test [5] was 100% each time. `Nc1cnc(N2CCc3cc(S(=O)(=O)Nc4c(F)cc(Cl)cc4F)cc(N4CCCC4=O)c32)nc1` [TP-020n]: the % of control on SRSF protein kinase 1 worked out at 81%. `CCn1c(-c2nc3cc(C(=O)N4CCCC(N)C4)ccc3n2C)cc2ccccc21` (stereo not drawn): in test [6], the pXC50 was under 4.3 M.

In test [7], `CC[C@@H]1[C@H](F)C(=O)N[C@@H]1COc1nccc2cc(C(N)=O)c(OC)cc12` [ZIMLOVISERTIB] returned a % of inhibition of 5.7%. For the compound `Cc1cc(F)c(C(=O)Nc2cccc(-c3nncn3C(C)C)n2)cc1-n1cnc(C2CC2)c1`, in test [8], the % of control amounted to 100%. Compound `CN(C)CCCOc1ccc(-c2cc(NCCCn3cccn3)nc(S(C)(=O)=O)n2)cc1` had a dTM in test [9] of under 2 K.

Regarding `C=CC(=O)Nc1cc(-n2c(=O)ccc3cnc4ccc(-c5ccc(NS(C)(=O)=O)cc5)cc4c32)ccc1C`, the % of control in [10] (at 1 µM) was 62%; in test [10] (at 10 µM), 95%. In turn, `COCC(=O)NC/C=C/c1ccc2ncnc(Nc3ccc(Oc4ccc(C)nc4)c(C)c3)c2c1` [CP-724714] had a % of control in test [11] of 100%.
